Measured values published in ChEMBL document CHEMBL1201862, “PubChem BioAssay data set” (2004).
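In this assay, cells in 96-well plates receive the compound at five concentrations for 48 hours. Endpoints are linearly interpolated between the surrounding concentrations. Abbreviation: GI50, concentration required for 50% inhibition of growth.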 Active and inactive are the calls of the source. Rule as the data show it: active = GI50 up to about 1.1 µM and inactive = higher.

Experiments:
Assay in all cases: growth of human tumour cells (NCI), 48 h
SNB-19 = test system: SNB-19
HCC 2998 = test system: HCC 2998
A549 = test system: A549
U-251 = test system: U-251
LOX IMVI = test system: LOX IMVI
PC-3 = test system: PC-3
NCI/ADR-RES = test system: NCI/ADR-RES
MDA-MB-435 = test system: MDA-MB-435
HL-60 = test system: HL-60
OVCAR-4 = test system: OVCAR-4
SK-MEL-28 = test system: SK-MEL-28
DU-145 = test system: DU-145
XF498 = test system: XF498
DLD-1 = test system: DLD-1
DMS-114 = test system: DMS-114
KM-20L2 = test system: KM-20L2
DMS-273 = test system: DMS-273
K562 = test system: K562
SNB-78 = test system: SNB-78

Measured: GI50

CC(C)C(=O)Cc1ccc2ccccc2n1
inactive: SNB-19 > 100 µM | HCC 2998 > 100 µM | A549 > 100 µM | U-251 > 100 µM | LOX IMVI > 100 µM | PC-3 89.7 µM | NCI/ADR-RES > 100 µM | MDA-MB-435 70 µM | HL-60 > 100 µM | OVCAR-4 > 100 µM | SK-MEL-28 > 100 µM | DU-145 > 100 µM

CCN(CC)CCO[Si](OCCN(CC)CC)(OCCN(CC)CC)OCCN(CC)CC
inactive: SNB-19 > 100 µM | HCC 2998 > 100 µM | A549 > 100 µM | XF498 > 100 µM | DLD-1 > 100 µM | U-251 > 100 µM | DMS-114 > 100 µM | KM-20L2 > 100 µM | LOX IMVI > 100 µM | DMS-273 > 100 µM | OVCAR-4 > 100 µM | SK-MEL-28 > 100 µM

Cc1cc(C)nc(NS(=O)(=O)c2ccc(NC(=O)c3cccc4c(Nc5ccc(S(=O)(=O)Nc6cc(C)on6)cc5)c5ccccc5nc34)cc2)n1
inactive: SNB-19 15.7 µM | HCC 2998 14.8 µM | XF498 21.1 µM | DLD-1 30.1 µM | U-251 18.4 µM | DMS-114 20.7 µM | LOX IMVI 18.9 µM | K562 28.7 µM | HL-60 26.5 µM | OVCAR-4 23.2 µM | SNB-78 41.7 µM | SK-MEL-28 20.7 µM

CC1(Br)S(=O)(=O)OCCOS1(=O)=O
inactive: SNB-19 > 100 µM | HCC 2998 > 100 µM | A549 > 100 µM | XF498 > 100 µM | DLD-1 > 100 µM | U-251 > 100 µM | DMS-114 > 100 µM | KM-20L2 > 100 µM | LOX IMVI > 100 µM | K562 > 100 µM | HL-60 > 100 µM | DMS-273 > 100 µM | OVCAR-4 > 100 µM | SNB-78 > 100 µM | SK-MEL-28 > 100 µM

N=c1n(C(=O)N2CCCC2)c2cc(Cl)ccc2n1C1=NCCN1
inactive: SNB-19 > 100 µM | HCC 2998 > 100 µM | A549 > 100 µM | U-251 83.2 µM | LOX IMVI 28.3 µM | PC-3 86.9 µM | K562 40.6 µM | NCI/ADR-RES 93.5 µM | MDA-MB-435 52 µM | HL-60 38.8 µM | OVCAR-4 > 100 µM | SK-MEL-28 95.3 µM | DU-145 50 µM

COc1ccc(NC(=O)C(=O)NNC(=O)c2sc(NNC(C)=O)nc2C)c([N+](=O)[O-])c1
inactive: SNB-19 > 100 µM | HCC 2998 > 100 µM | A549 > 100 µM | XF498 71.3 µM | U-251 > 100 µM | DMS-114 > 100 µM | KM-20L2 > 100 µM | LOX IMVI 40.6 µM | K562 37.1 µM | HL-60 42.7 µM | DMS-273 > 100 µM | OVCAR-4 51.5 µM | SNB-78 > 100 µM | SK-MEL-28 > 100 µM

O=C1C(Cl)C2(CC(/C=C/c3cccs3)=NN2c2cccc(S(=O)(=O)O)c2)N1c1nc2ccccc2s1 (stereo not given)
inactive: SNB-19 > 100 µM | HCC 2998 > 100 µM | A549 42 µM | U-251 99.8 µM | LOX IMVI 15.1 µM | PC-3 > 100 µM | K562 35.6 µM | NCI/ADR-RES > 100 µM | MDA-MB-435 45.8 µM | HL-60 64.6 µM | OVCAR-4 71.3 µM | SK-MEL-28 > 100 µM | DU-145 21.6 µM

C#CCN(Cc1ccc2nc(-c3ccccc3)c(Cl)nc2c1)c1ccc(F)cc1
inactive: SNB-19 > 100 µM | HCC 2998 > 100 µM | A549 > 100 µM | U-251 > 100 µM | LOX IMVI > 100 µM | PC-3 > 100 µM | NCI/ADR-RES > 100 µM | MDA-MB-435 > 100 µM | HL-60 15.1 µM | OVCAR-4 59.8 µM | SK-MEL-28 > 100 µM | DU-145 95.7 µM

Brc1cc(CCOC2CCCCO2)c(-c2sccc2CCOC2CCCCO2)s1 (stereo not given)
inactive: SNB-19 > 100 µM | HCC 2998 31.9 µM | A549 24.8 µM | U-251 57.8 µM | LOX IMVI 26.3 µM | PC-3 42.2 µM | K562 13.8 µM | NCI/ADR-RES 40.7 µM | MDA-MB-435 37.7 µM | HL-60 17.8 µM | OVCAR-4 48 µM | SK-MEL-28 > 95.1 µM | DU-145 > 100 µM

CC(C)CCNc1ncnc2[nH]ncc12
inactive: SNB-19 > 100 µM | HCC 2998 > 100 µM | A549 > 100 µM | U-251 > 100 µM | LOX IMVI 91.2 µM | PC-3 > 100 µM | K562 81.8 µM | NCI/ADR-RES 77.4 µM | MDA-MB-435 97.5 µM | HL-60 > 100 µM | OVCAR-4 > 100 µM | SK-MEL-28 > 100 µM | DU-145 > 100 µM

CC1=CC(=O)CC2(C)CCC(C(C)CC(=O)CC(C)C)CC12 (stereo not given)
inactive: SNB-19 > 100 µM | A549 17.8 µM | U-251 41.9 µM | LOX IMVI 18.9 µM | PC-3 19.5 µM | K562 24.5 µM | NCI/ADR-RES 29.6 µM | MDA-MB-435 20.3 µM | HL-60 4.39 µM | OVCAR-4 > 100 µM | SK-MEL-28 26 µM | DU-145 62.4 µM

CC(O)(P(=O)(O)O)P(=O)(O)OCC(O)CN1CCOCC1 (stereo not given)
inactive: SNB-19 > 100 µM | HCC 2998 > 100 µM | A549 > 100 µM | U-251 > 100 µM | LOX IMVI > 100 µM | PC-3 > 100 µM | K562 > 100 µM | NCI/ADR-RES > 100 µM | MDA-MB-435 > 100 µM | HL-60 > 100 µM | SK-MEL-28 > 100 µM | DU-145 > 100 µM

CCCCCCCc1cscc1-c1cscc1Br
inactive: SNB-19 70.1 µM | HCC 2998 27.7 µM | A549 27.2 µM | U-251 39.3 µM | LOX IMVI 20.1 µM | PC-3 33 µM | K562 53.1 µM | NCI/ADR-RES 90.8 µM | MDA-MB-435 35.9 µM | OVCAR-4 33.7 µM | SK-MEL-28 88.9 µM | DU-145 48.4 µM

OC1(c2ccc(Cl)cc2)c2ccc3ccccc3c2C2=N[C@H]3CCCC[C@@H]3N21 (stereo not given in full)
inactive: SNB-19 36.8 µM | A549 10 µM | U-251 5.82 µM | LOX IMVI 3.24 µM | PC-3 6.32 µM | K562 13.2 µM | NCI/ADR-RES 1.63 µM | MDA-MB-435 10.7 µM | HL-60 5.69 µM | OVCAR-4 > 100 µM | SK-MEL-28 > 100 µM | DU-145 3.39 µM

O=c1c2cc(I)ccc2nc(-c2cccs2)n1O
inactive: SNB-19 22.2 µM | HCC 2998 30 µM | A549 22.6 µM | U-251 30.1 µM | LOX IMVI 28.1 µM | PC-3 52.1 µM | K562 48.3 µM | NCI/ADR-RES 41.1 µM | MDA-MB-435 34.8 µM | HL-60 34.3 µM | OVCAR-4 31.6 µM | SK-MEL-28 65.8 µM | DU-145 27.7 µM
